Laboratory results published in patent publication US10993935B2, “Compositions and methods for treatment of lung infections” (priority 2018, dated 2021).
Counter-ions that a name gives are not always drawn.

Tests used:
[1] = system: P. aeruginosa PAO581 (PAO1mucA25); assay: NIH drug library screen for inhibition of growth, mucoidy and PalgD-lacZ colour; assay type: cell-based, Pseudomonas aeruginosa; details: for Growth 10 μM / Mucoidy 10 μM / Color 10 μM: drug at 10 μM; for Growth 10 μM / Growth 50 μM / Growth 2 μM: PAO581 on PIA; for Mucoidy 10 μM / Mucoidy 50 μM / Mucoidy 2 μM: PAO581 with pLP170-PalgD-lacZ on PIA + X-gal; for Color 10 μM / Color 50 μM / Color 2 μM: X-gal colour of PalgD-lacZ reporter, 'Light' wraps to 'Light Blue'; for Growth 50 μM / Mucoidy 50 μM / Color 50 μM: drug at 50 μM; for Growth 2 μM / Mucoidy 2 μM / Color 2 μM: drug at 2 μM
[2] = Adverse effects after nebulization in mice; assay type: in vivo, C57BL/6 mice; details: single nebulized dose of 5 ml of 100% DMSO; C57BL/6 mice (n=8)
Protocol: Drug Nebulization. C57BL/6 mice (n=8) were first exposed to 5 mL DMSO for 10 minutes to determine any adverse effects that may occur from using DMSO. Mice (n=16) were then exposed to TOB in 0.225% saline or RFX in DMSO via nebulization until the 5 mL drug mixture was depleted—typically 10-15 minutes. Nebulization was conducted using the pressure-based nebulizer and chamber purchased from Kent Scientific (Torrington, Conn.). TOB was nebulized at concentrations of 100 mg (n=4) or 400 mg (n=4) in 5 mL of 0.225% saline. RFX was nebulized at concentrations of 100 mg (n=4) or 400 mg (n=4) in 5 ml of 100% dimethyl sulfoxide. Mice were sacrificed immediately after nebulization via CO2 chamber. Lungs were then collected and homogenized. TOB concentrations were measured using ELISA. RFX concentrations were measured via HPLC.
The potential adverse effects of using DMSO were first assessed by nebulizing DMSO alone to a group of C57BL/6 mice (n=8). This type of mice was used due to their natural resistance against infection based on our previous studies. […] To determine the dosage of each drug received by the mice, the lungs were homogenized and drug concentrations of TOB and RFX were determined via ELISA and HPLC, respectively. […] The droplet size for both TOB and RFX were determined to be identical with the average droplet size for TOB and RFX being 5.07 μm and 5.02 μm, respectively. […]

Structure (SMILES)	Growth 10 μM [1]	Mucoidy 10 μM [1]	Color 10 μM [1]	Growth 50 μM [1]	Mucoidy 50 μM [1]	Color 50 μM [1]	Growth 2 μM [1]	Mucoidy 2 μM [1]	Color 2 μM [1]	adverse effects [2]
CCCCCCCCCOc1ccc2[nH]cc(CCN)c2c1 [5-Nonyloxyltryptamine]	Yes	High	Blue	Reduced	High	Blue				
CCCCCCNC(=O)n1cc(F)c(=O)[nH]c1=O [Carmofur]	Reduced	Inhibited	Clear	Reduced	Inhibited	Clear	Yes	High	Light	
CC[C@H]1OC(=O)[C@H](C)[C@@H](O[C@H]2C[C@@](C)(OC)[C@@H](O)[C@H](C)O2)[C@H](C)[C@@H](O[C@@H]2O[C@H](C)C[C@H](N(C)C)[C@H]2O)[C@](C)(OC)C[C@@H](C)C(=O)[C@H](C)[C@@H](O)[C@]1(C)O [Clarithromycin]	Reduced	High	Blue	Yes	Inhibited	Light	Yes	High	Blue	
C[S+](C)[O-] [DMSO, dimethyl sulfoxide]										no adverse effects
CCN1CCN(c2cc3c(cc2F)c(=O)c(C(=O)O)cn3C2CC2)CC1 [Enrofloxacin]	Inhibited			Inhibited			Inhibited			
COc1c(N2C[C@@H]3CCCN[C@@H]3C2)c(F)cc2c(=O)c(C(=O)O)cn(C3CC3)c12 [Moxifloxacin Hydrochloride]	Inhibited			Inhibited			Reduced	Reduced	Light	
C[C@H]1COc2c(C3(N)CC3)c(F)cc3c(=O)c(C(=O)O)cn1c23 [Pazufloxacin]	Inhibited			Inhibited			Inhibited			
CO[C@H]1/C=C/O[C@@]2(C)Oc3c(C)c(O)c4c(c3C2=O)C2=NC3(CCN(CC(C)C)CC3)NC2=C(NC(=O)/C(C)=C\C=C\[C@H](C)[C@H](O)[C@@H](C)[C@@H](O)[C@@H](C)[C@H](OC(C)=O)[C@@H]1C)C4=O [Rifabutin]	Inhibited			Inhibited			Reduced	High	Light	
CO[C@H]1/C=C/O[C@@]2(C)Oc3c(C)c(O)c4c(O)c(c(/C=N/N5CCN(C6CCCC6)CC5)c(O)c4c3C2=O)NC(=O)/C(C)=C\C=C\[C@H](C)[C@H](O)[C@@H](C)[C@@H](O)[C@@H](C)[C@H](OC(C)=O)[C@@H]1C [Rifapentine]	Reduced	Reduced	Light	Inhibited			Yes	High	Blue	
CN1CCN(c2c(F)cc3c(=O)c(C(=O)O)cn4c3c2SCC4)CC1 [Rufloxacin Monohydrate]	Yes	High	Blue	Yes	Inhibited	Light				
NC1CCN(c2nc3c(cc2F)c(=O)c(C(=O)O)cn3-c2ccc(F)cc2F)C1 (stereo not drawn) [Tosufloxacin Tosilate]	Inhibited			Inhibited			Inhibited			
